Molecular target: α-glucosidase
Assay: α-glucosidase inhibition assay (PNPG substrate)
Assay type: biochemical
Conditions: pH 6.8, 37 °C, 10 min, 0.01 M PNPG substrate, 1 U/mL enzyme; means ± SD of three independent replicates; read-out: α-Glucosidase Inhibition Contstant (IC50)
Experimental: The a-glucosidase inhibition assay was performed according to a slightly modified method of Pierre et al.. α-Glucosidase was purchased from Sigma (San Francisco, CA, USA, No. M0035-15). The inhibition was measured spectrophotometrically at pH 6.8 and at 37 °C for 10 min, using 0.01 M p-nitrophenyl a-D-glucopyranoside (PNPG) from Sigma (No. M0103) as a substrate and 1 U/mL of enzyme, in 0.067 M KH2PO4-Na2HPO4 buffer. […] The increment in absorption at 410 nm due to the hydrolysis of PNPG by α-glucosidase was monitored continuously with an automatic multi-functional microplate reader.

`CCCCCC1CCCCCCCCCC(=O)OC2C(OC(C)C(OC3OC(C)C(OC4OC(C)C(OC(=O)C(C)CC)C(OC(=O)C=Cc5ccccc5)C4O)C(OC4OC(C)C(O)C(O)C4O)C3OC(=O)C(C)CC)C2O)OC2C(O1)OC(CO)C(O)C2O` [Compound 1, (S)-jalapinolic acid 11-O-α-L-rhamnopyranosyl-(1→3)-O-[3-O-trans-cinnamoyl-4-O-(S)-2-methyl-butyryl-α-L-rhamnopyranosyl-(1→4)]-O-[2-O-(S)-2-methylbutyryl]-α-L-rhamnopyranosyl-(1→4)-O-α-L-rhamnopyranosyl-(1→2)-O-β-D-glucopyranoside, intramolecular 1,2''-ester] gave an IC50 of 21.4 ± 2.9 µM.
`CCCCCC1CCCCCCCCCC(=O)OC2C(OC(C)C(OC3OC(C)C(OC4OC(C)C(OC(=O)C(C)CC)C(OC(=O)C=Cc5ccccc5)C4O)C(OC4OC(C)C(O)C(O)C4O)C3OC(=O)CCC)C2O)OC2C(O1)OC(CO)C(O)C2O` (stereo not shown) [Compound 2, Cairicoside II] showed an IC50 of 26.2 ± 4.6 µM.
`CCCCCCCC(=O)OC1C(OC2C(C)OC3OC4C(OC(CCCCC)CCCCCCCCCC(=O)OC3C2O)OC(CO)C(O)C4O)OC(C)C(OC2OC(C)C(OC(=O)C(C)CC)C(OC(=O)C=Cc3ccccc3)C2O)C1OC1OC(C)C(O)C(O)C1O` (stereo not shown) [Compound 3, Cairicoside III] was tested, and the IC50 was 30.4 ± 3.9 µM.
`CCCCCCCCCC(=O)OC1C(OC2C(C)OC3OC4C(OC(CCCCC)CCCCCCCCCC(=O)OC3C2O)OC(CO)C(O)C4O)OC(C)C(OC2OC(C)C(OC(=O)C(C)CC)C(OC(=O)C=Cc3ccccc3)C2O)C1OC1OC(C)C(O)C(O)C1O` (stereo not shown) [Compound 4, Cairicoside IV] was tested, and the IC50 was 28.9 ± 1.4 µM.

From paper PMC6272348, “Four New Pentasaccharide Resin Glycosides from Ipomoea cairica with Strong α-Glucosidase Inhibitory Activity” (Molecules, 2015)
